The test system of the test is avocados. Briefly: Durometer shore (firmness, ripening) of treated avocados. It is filed as in vivo, avocado. The note with it: for average increase of shore over uninfected and untreated avocados: Example 22. The protocol:
Example 9. The antifungal activity of a range of AITC and carvacrol vapor exposure times was tested against Cg in avocados. To measure the effect of the various treatments on ripening, durometer shore was taken after 7 days of incubation at ambient temperature and high humidity. All samples were wounded by removing the stem and infected by dispensing 1000 Cg spores suspended in 10 μL of water in the wound. The test groups consisted of avocados that were: infected and left untreated on the benchtop; infected and left untreated under a fume hood; exposed to the vapor of 3 mL of AITC in a Petri dish for 24 hours, 48 hours, and 72 hours; and exposed to the vapor of 3 mL of carvacrol in a Petri dish for 72 hours. FIG. 11 quantifies the infection results. […] All exposure times to AITC vapor reduced the incidence of Cg mold compared to the untreated samples. A 24 hour AITC exposure reduced the incidence of Cg mold by 90%. A 48 hour AITC exposure reduced the incidence of Cg mold by 97%. A 72 hour AITC exposure reduced the incidence of Cg mold by 83%.
Example 10. The antifungal activity of a range of AITC vapor exposure times were tested against Cg in avocados. To measure the effect of the various treatments on ripening, durometer shore was taken after 6 days of incubation at ambient temperature and high humidity. All samples were wounded by removing the stem and infected by dispensing 1000 Cg spores suspended in 10 μL of water in each wound. The test groups consisted of avocados that were: infected and left untreated on the benchtop; infected and left untreated in a fume hood; exposed to the vapor of 3 mL of AITC in a Petri dish for 24 hours, 48 hours, and 72 hours. FIG. 13 quantifies the infection results. […] All exposure times to AITC vapor reduced the incidence of Cg mold compared to the untreated samples.
Example 21. The antifungal activity of avocados exposed to AITC vapor and prochloraz was tested against Cg in avocados. To measure the effect of the various treatments on ripening, durometer shore was taken after 5 days of incubation at ambient temperature (about 20° C. to about 25° C.) and high humidity (about 88% relative humidity to about 93% relative humidity). All samples were wounded by removing the stem and infected by dispensing 1000 Cg spores suspended in 10 μL of water in the wound. Exposure to vapor was done by placing the avocados in an airtight container, dispensing AITC onto Whatman filter paper discs, suspending the discs in front of a battery-powered fan, closing the container and incubating the avocados for 30 minutes. After vapor exposure, the avocados were left at ambient temperature, high humidity, and assessed for Cg mold on day 5. Treatment groups consisted of avocados that were: exposed for 30 minutes to the vapor of 125 μL of AITC disposed on a filter paper disc; dipped in a solution of 0.1 g/L of prochloraz and placed to dry on a rack in front of a fan for 30 min; infected and left untreated; and uninfected and untreated. […] To prepare the 0.1 g/L of prochloraz, 10 mg of prochloraz was mixed with 10 mL of ethanol and 90 mL of water. […] A 24 hour AITC exposure reduced the incidence of Cg mold by 90%. […] The mean shore value for the untreated avocados was 28.8 (standard deviation (SD)=10.8). The mean shore value for the infected avocados was 47.3 (SD=11.8). The mean shore value of the positive control, prochloraz treated avocados was 44.3 (SD=14.7). The mean shore value of the AITC treated avocados was 61.1 (SD=10.5).
Durometer Shore Measurement: A Fruit Hardness Tester— HPE III Fff w/Sphere Ø 5.0 mm Test Anvil is used for the measurements. The Operating Procedure is as follows: • 1) At room temperature and 1 atm pressure, switch on the measuring device and press the hull or sleeve against the specimen so that the contact surface of the pressure plate rests on the fruit. […]

For `C=CCN=C=S` [AITC, allyl isothiocyanate], the “average increase of durometer shore over untreated avocados” value (Example 9, all AITC treatments (3 mL; 24, 48, 72 hours), after 7 days, P value<0.0001) came out at 20.3 shore. For the same compound, the “average increase of durometer shore over infected avocados” value (Example 10, all AITC treatments (3 mL; 24, 48, 72 hours), after 6 days, P value<0.005) was determined as 15.4 shore. The “shore higher than the untreated avocados” value (Example 21, 125 μL, 30 minutes, after 5 days) is listed as “more than 30 shore”. Besides, the mean shore value (Example 21, Cg-infected avocados, AITC 125 μL 30 minutes, prochloraz 0.1 g/L dip, after 5 days) is 61.1 (SD=10.5). For the same compound, the “average increase of shore over uninfected and untreated avocados” value is, setting by setting: (250 μL, 30 minutes, after 5 days, P value=0.0016) “about 10 shore”; (500 μL, 30 minutes, after 5 days, P value<0.0001) “about 28.5 shore”. Moreover, the “average increase of shore over untreated avocados” value (Example 23, 500 μL AITC vapor, coating agent 40 g/L dip, after 11 days, P value<0.0001) turned out to be 22.5 shore.

Source of the values: patent US20230292776A1, “GAS PHASE TREATMENT OF PRODUCE” (priority 2022, published 2023).
